Legend:
[1] = tested on: individuals suffering from progressive supranuclear palsy (PSP); conditions: 30 mg twice daily, changed formulation; cited from earlier work
Adnp^+/− mice = assay: Elevated plus maze test; format: in vivo; conditions: male mice, 5 min, NAP new formulation (CB); NAP-treated vs Adnp^+/− p<0.001
Protocol: FIG. 4. […] The relative time spent in the open/closed arms for 5 min is presented (n=9-12 per group). Data are expressed as mean±SEM. D2 calculates the exploration time of the open arms (a) and the exploration time of the closed arms (b).
Experiments performed as we described in Malishkevich et al., 2015 (37) and Amram et al., Mol Psychiatry. 2016 October; 21(10):1467-76 (7). 3-6 month-old male mice were used, drug application (0.5 μg/5 μl/mouse) was once daily, for one month and then behavioral assays were initiated together with drug application. In experiments with the vehicle termed DD (NAP-benzalkonium), drug application was at 2 months of age and continued as above. Open field experiments (16, 17) and elevated plus maze evaluations (18) were carried out as before.
Experiments were performed as described (18), assessing the different times spent in open arms (indicative of exploratory behavior) versus closed arms (indicative of anxious behavior) in the elevated plus maze (FIG. 4).

CC[C@H](C)[C@H](NC(=O)[C@H](CO)NC(=O)[C@@H](NC(=O)[C@@H]1CCCN1C(=O)[C@H](C)NC(=O)[C@@H](N)CC(N)=O)C(C)C)C(=O)N1CCC[C@H]1C(=O)N[C@@H](CCC(N)=O)C(=O)O [NAP]
efficacy in PSP [1]: did not show efficacy
increased anxiety: relative time spent in open/closed arms (Adnp^+/− mice): ameliorated
